Source: patent publication US10322995B2, “Substituted cyano cycloalkyl penta-2,4-dienes, cyano cycloalkyl pent-2-en-4-ynes, cyano heterocyclyl penta-2,4-dienes and cyano heterocyclyl pent-2-en-4-ynes as active substances against abiotic plant stress” (BAYER CROPSCIENCE AKTIENGESELLSCHAFT, priority 2014, dated 2019)

Molecular target: T1, phosphatase ABI1 via the co-regulator RCAR11/PYR1 (Arabidopsis thaliana, UniProt O49686+P49597)
T1 sequence (O49686 1-191): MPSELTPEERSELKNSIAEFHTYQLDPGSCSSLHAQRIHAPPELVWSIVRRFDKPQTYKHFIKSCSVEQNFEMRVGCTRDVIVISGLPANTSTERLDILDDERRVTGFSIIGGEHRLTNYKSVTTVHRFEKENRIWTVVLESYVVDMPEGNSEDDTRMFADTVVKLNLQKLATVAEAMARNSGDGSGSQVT
T1 sequence (P49597 1-434): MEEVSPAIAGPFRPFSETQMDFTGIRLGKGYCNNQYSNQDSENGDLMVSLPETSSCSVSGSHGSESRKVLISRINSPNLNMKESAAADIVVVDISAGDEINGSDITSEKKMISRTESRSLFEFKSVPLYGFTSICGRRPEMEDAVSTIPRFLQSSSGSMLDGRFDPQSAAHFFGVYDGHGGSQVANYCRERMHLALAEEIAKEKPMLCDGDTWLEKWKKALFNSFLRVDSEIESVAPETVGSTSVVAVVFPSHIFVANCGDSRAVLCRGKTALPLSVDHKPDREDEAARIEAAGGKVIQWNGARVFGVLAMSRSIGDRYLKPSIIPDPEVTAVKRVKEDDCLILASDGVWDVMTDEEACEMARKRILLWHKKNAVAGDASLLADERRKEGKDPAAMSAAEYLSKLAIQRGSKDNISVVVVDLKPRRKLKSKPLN
Experiment: In vitro assay: inhibition of the phosphatase ABI1 via the co-regulator RCAR11/PYR1, MUP dephosphorylation, fluorescence
Format: biochemical
Design: inhibition: dose or concentration left out as unconfirmed
Settings: MUP dephosphorylation, fluorescence 460 nm; read-out: ABI1 inhibition
Outline: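 ABI1 (0.15 μg/well) with RCAR11 (0.30 μg/well) in Tris-HCl pH 8, NaCl, MnCl2, DTT and Tween20, with MUP as substrate; 20 min at 35 °C, fluorescence at ex 340/em 460 nm. Compounds were in DMSO/water, esterase-pretreated if needed, with DMSO 0.5% and ABA 5 μM as controls. Inhibition was binned into ≥90, 70–90, 50–70 and 30–50% classes.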

| inhibition [%] | Compound |
| --- | --- |
| > 90 | CCOC(=O)/C=C(\C#CC(O)(C(C)C)C1(C#N)CC1)C1CC1 (stereo not drawn) [I.1-124, Ethyl (2Z)-6-(1-cyanocyclopropyl)-3-cyclopropyl-6-hydroxy-7-methyloct-2-en-4-ynoate] |

Same assay, conditions: concentration of 5 mM of the substance in a solution of DMSO and water; MUP dephosphorylation, fluorescence 460 nm

| Compound | ABI1 inhibition |
| --- | --- |
| CCCOC(=O)/C=C(\C#CC(O)(c1ccccc1)C1(C#N)CC1)CC (stereo not drawn) [I.1-609] | ++++ (inhibition≥90%) |
| COC(=O)/C=C(/C)C#CC(O)(C(C)C)C1(C#N)CC1 (stereo not drawn) [I.1-135] | ++++ (inhibition≥90%) |
| CC/C(C#CC(O)(c1ccccc1)C1(C#N)CC1)=C/C(=O)OC (stereo not drawn) [I.1-202] | ++++ (inhibition≥90%) |
| CC/C(C#CC(O)(C1CCC1)C1(C#N)CC1)=C/C(=O)OC (stereo not drawn) [I.1-648] | ++++ (inhibition≥90%) |
| CCC(C=CC(O)(c1ccccc1)C1(C#N)CC1)=CC(=O)O (racemic) [I.2-201] | ++++ (inhibition≥90%) |
| CCCOC(=O)/C=C(\C#CC(O)(C(C)C)C1(C#N)CC1)CC (stereo not drawn) [I.1-605] | ++++ (inhibition≥90%) |

Next, values leading:

| ABI1 inhibition | Compound |
| --- | --- |
| +++ (90%>inhibition≥70%) | CCOC(=O)/C=C(/C)C#CC(O)(C(C)C)C1(C#N)CC1 (stereo not drawn) [I.1-136] |
| ++++ (inhibition≥90%) | CCOC(=O)/C=C(\C#CC(O)(C(C)C)C1(C#N)CC1)CC (stereo not drawn) [I.1-103] |
